Reference: patent US20110136666A1, “CHEMICAL COMPOUNDS” (SYNGENTA CROP PROTECTION, INC., priority 2008, published 2011)

How the values were obtained:
Format in all cases: in vivo
[1] = system: Alopecurus myosuroides (ALOMY); assay: Pre-emergence biological efficacy, glasshouse pot test; conditions: 312 h, after 13 days, 100=total damage, 0=no damage, read-out: Percentage damage caused to weed species ALOMY
Procedure: (§1) Seeds of Alopecurus myosuroides (ALOMY), Setaria faberi (SETFA), Echinochloa crus-galli (ECHCG), Solanum nigrum (SOLNI), Amaranthus retroflexus (AMARE) and Ipomea hederaceae (IPOHE) were sown in standard soil in pots. After cultivation for one day under controlled conditions in a glasshouse (at 24/16° C., day/night; 14 hours light; 65% humidity), the plants were sprayed with an aqueous spray solution derived from the formulation of the technical active ingredient in acetone/water (50:50) solution containing 0.5% Tween 20 (polyoxyethylene sorbitan monolaurate, CAS RN 9005-64-5) to give a final dose of 250 or 1000 g/ha of test compound.
(§2) The test plants were then grown under controlled conditions in the glasshouse (at 24/16° C., day/night; 14 hours light; 65% humidity) and watered twice daily. After 13 days the test was evaluated (100=total damage to plant; 0=no damage to plant).

[2] = system: Amaranthus retroflexus (AMARE); assay: as above; conditions: 312 h, after 13 days, 100=total damage, 0=no damage, read-out: Percentage damage caused to weed species AMARE
Procedure: as §1, §2

[3] = system: Echinochloa crus-galli (ECHCG); assay: as above; conditions: 312 h, after 13 days, 100=total damage, 0=no damage, read-out: Percentage damage caused to weed species ECHCG
Procedure: as §1, §2

[4] = system: Ipomea hederaceae (IPOHE); assay: as above; conditions: Ipomoea hederacea, 312 h, after 13 days, 100=total damage, 0=no damage, read-out: Percentage damage caused to weed species IPOHE
Procedure: as §1, §2

Setaria faberi (SETFA) [5] = assay: as above; conditions: 312 h, after 13 days, 100=total damage, 0=no damage, read-out: Percentage damage caused to weed species SETFA
Procedure: as §1, §2

Solanum nigrum (SOLNI) [6] = assay: as above; conditions: 312 h, after 13 days, 100=total damage, 0=no damage, read-out: Percentage damage caused to weed species SOLNI
Procedure: as §1, §2

[7] = system: Alopecurus myosuroides (ALOMY); assay: Post-emergence biological efficacy, glasshouse pot test; conditions: 312 h, after 13 days, 100=total damage, 0=no damage, read-out: Percentage damage caused to weed species ALOMY
Procedure: as §1, with “8 days” for “one day”
(§3) The test plants were then grown on under controlled conditions in a glasshouse (at 24/16° C., day/night; 14 hours light; 65% humidity) and watered twice daily. After 13 days the test was evaluated (100=total damage to plant; 0=no damage to plant).

[8] = system: Amaranthus retroflexus (AMARE); assay: as above; conditions: 312 h, after 13 days, 100=total damage, 0=no damage, read-out: Percentage damage caused to weed species AMARE
Procedure: as §1, with “8 days” for “one day”
as §3

[9] = system: Echinochloa crus-galli (ECHCG); assay: as above; conditions: 312 h, after 13 days, 100=total damage, 0=no damage, read-out: Percentage damage caused to weed species ECHCG
Procedure: as §1, with “8 days” for “one day”
as §3

[10] = system: Ipomea hederaceae (IPOHE); assay: as above; conditions: Ipomoea hederacea, 312 h, after 13 days, 100=total damage, 0=no damage, read-out: Percentage damage caused to weed species IPONE
Procedure: as §1, with “8 days” for “one day”
as §3

Setaria faberi (SETFA) [11] = assay: as above; conditions: 312 h, after 13 days, 100=total damage, 0=no damage, read-out: Percentage damage caused to weed species SETFA
Procedure: as §1, with “8 days” for “one day”
as §3

Solanum nigrum (SOLNI) [12] = assay: as above; conditions: 312 h, after 13 days, 100=total damage, 0=no damage, read-out: Percentage damage caused to weed species SOLNI
Procedure: as §1, with “8 days” for “one day”
as §3

| Compound | pest or weed control at 250 g/ha [1] | pest or weed control at 250 g/ha [2] | pest or weed control at 250 g/ha [3] | pest or weed control at 250 g/ha [4] | pest or weed control at 250 g/ha (Setaria faberi (SETFA) [5]) | pest or weed control at 250 g/ha (Solanum nigrum (SOLNI) [6]) | pest or weed control at 250 g/ha [7] | pest or weed control at 250 g/ha [8] | pest or weed control at 1000 g/ha [1] | pest or weed control at 1000 g/ha [2] | pest or weed control at 1000 g/ha [3] | pest or weed control at 1000 g/ha [4] | pest or weed control at 1000 g/ha (Setaria faberi (SETFA) [5]) | pest or weed control at 1000 g/ha (Solanum nigrum (SOLNI) [6]) | pest or weed control at 1000 g/ha [7] | pest or weed control at 1000 g/ha [8] | pest or weed control at 1000 g/ha [9] | pest or weed control at 1000 g/ha [10] | pest or weed control at 1000 g/ha (Setaria faberi (SETFA) [11]) | pest or weed control at 1000 g/ha (Solanum nigrum (SOLNI) [12]) | also measured |
| --- | --- | --- | --- | --- | --- | --- | --- | --- | --- | --- | --- | --- | --- | --- | --- | --- | --- | --- | --- | --- | --- |
| COC(=O)c1nc(-c2cccnc2F)nc(N)c1Cl [Compound 2-172, 4-Amino-5-chloro-2-(2-fluoropyridin-3-yl)-6-methoxycarbonyl pyrimidine] | 0% | 0% | 0% | 0% | 0% | 0% | 10% | 0% | – | – | – | – | – | – | – | – | – | – | – | – | pest or weed control at 250 g/ha [9]: 0%; pest or weed control at 250 g/ha [10]: 10%; pest or weed control at 250 g/ha (Setaria faberi (SETFA) [11]): 10%; pest or weed control at 250 g/ha (Solanum nigrum (SOLNI) [12]): 60% |
| COC(=O)c1nc(-c2c(C)n[nH]c2C)nc(N)c1Cl [Compound 2-72, 4-Amino-5-chloro-2-(3,5-dimethylpyrazol-4-yl)-6-methoxycarbonyl pyrimidine] | 0% | 0% | 0% | 0% | 0% | 0% | 0% | 0% | – | – | – | – | – | – | – | – | – | – | – | – | pest or weed control at 250 g/ha [9]: 0%; pest or weed control at 250 g/ha [10]: 0%; pest or weed control at 250 g/ha (Setaria faberi (SETFA) [11]): 0%; pest or weed control at 250 g/ha (Solanum nigrum (SOLNI) [12]): 0% |
| COC(=O)c1nc(-c2cc(Cl)sc2Cl)nc(N)c1Cl [Compound 2-19, 4-Amino-5-chloro-2-(2,5-dichlorothiophen-3-yl)-6-methoxycarbonyl pyrimidine] | – | – | – | – | – | – | – | – | 0% | 20% | 0% | 30% | 0% | 20% | 0% | 100% | 10% | 70% | 30% | 70% | – |
| O=C(O)c1nc(-c2ccccn2)nc(Cl)c1Cl [Compound 61-149, 4,5-dichloro-2-pyridin-2-ylpyrimidine-6-carboxylic acid] | – | – | – | – | – | – | – | – | 0% | 0% | 0% | 0% | 0% | 0% | 0% | 0% | 0% | 0% | 0% | 40% | – |
| COC(=O)c1nc(-c2csc3ccc(C)cc23)nc(N)c1Cl [Compound 2-57, 4-amino-5-chloro-6-methoxycarbonyl-2-(5-methylbenz-[b]thiophen-3-yl)-pyrimidine] | – | – | – | – | – | – | – | – | 0% | 0% | 0% | 0% | 0% | 0% | 0% | 0% | 0% | 20% | 0% | 0% | – |
